From PubChem BioAssay (NCI) come the findings set out here.

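Dose response: 5 concentrations. Exposure: 48 h. Format: 96-well plates. Endpoint: linear interpolation; highest concentration if not reached. TGI is the concentration that stops growth completely.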 Bounds are passed on as bounds.

Some test systems named below: SR leukemia; LOX IMVI melanoma; ACHN renal; HL-60(TB) leukemia; MCF7 breast; SW-620 colon; A549 NSCLC; MDA-N; COLO 205 colon; TK-10 renal; HCT-116 colon; HOP-62 NSCLC; NCI-H23 lung; OVCAR-8 ovarian; OVCAR-5 ovarian; SK-MEL-5 melanoma; HCC-2998 colon.
Test in all cases: inhibition of tumour cell growth, NCI panel, 48 h

As for `CC(=O)Oc1ccc(-c2nnc(-c3ccc(OC(C)=O)cc3)nn2)cc1`, the TGI is 88.1 µM in the assay with SR leukemia; more than 100 µM in the assay on LOX IMVI melanoma; more than 100 µM with ACHN renal; 84 µM in the assay with HL-60(TB) leukemia; more than 100 µM in the assay with MCF7 breast; more than 100 µM in the assay with SW-620 colon. Besides, the TGI in the assay on A549 NSCLC, in the assay on MDA-N, in the assay on COLO 205 colon, with TK-10 renal, in the assay with HCT-116 colon and with HOP-62 NSCLC was more than 100 µM in each case. Also, the TGI in the assay on NCI-H23 lung, in the assay on OVCAR-8 ovarian, in the assay with OVCAR-5 ovarian and with SK-MEL-5 melanoma was more than 100 µM in each case.
Consider `N/C(=N\N=C\c1nc2ccccc2o1)c1cnccn1`, for which the TGI in the assay with SR leukemia, with LOX IMVI melanoma, in the assay on ACHN renal, in the assay on HL-60(TB) leukemia, in the assay on MCF7 breast and in the assay on SW-620 colon was more than 100 µM each time. The TGI in the assay with A549 NSCLC, in the assay with MDA-N, in the assay with COLO 205 colon, in the assay on TK-10 renal, in the assay with HCT-116 colon and in the assay with HOP-62 NSCLC was more than 100 µM in each case. Further, the TGI in the assay on NCI-H23 lung, in the assay with OVCAR-8 ovarian, with OVCAR-5 ovarian and with SK-MEL-5 melanoma was more than 100 µM each time.
Regarding `C(=NC12CC3CC(CC(C3)C1)C2)C1CCCCC1`, the TGI in the assay with SR leukemia, in the assay on ACHN renal, in the assay on HL-60(TB) leukemia, with MCF7 breast, in the assay with SW-620 colon and in the assay on A549 NSCLC was more than 100 µM in each case. For the same compound, the TGI with MDA-N, in the assay on COLO 205 colon, with TK-10 renal, with HCT-116 colon, in the assay on HOP-62 NSCLC and in the assay on NCI-H23 lung was more than 100 µM in each case. For the same compound, the TGI in the assay on OVCAR-8 ovarian, in the assay with OVCAR-5 ovarian, in the assay with HCC-2998 colon and in the assay with SK-MEL-5 melanoma was more than 100 µM in each case.
As to `O=[N+]([O-])c1ccc2c3c1[C@@H]1O[C@@H]1c1cccc(c1-3)[C@@H]1O[C@H]21`, the TGI with SR leukemia is more than 100 µM; in the assay with LOX IMVI melanoma, 3.44 µM; with HL-60(TB) leukemia it was 7.58 µM; in the assay with MCF7 breast, more than 100 µM; in the assay on SW-620 colon, 6.7 µM; with A549 NSCLC, 31 µM. Also, the TGI is 10.5 µM with MDA-N; 23.1 µM in the assay with COLO 205 colon; more than 51.2 µM with TK-10 renal; 5.95 µM with HCT-116 colon; 34.4 µM with HOP-62 NSCLC; 11.6 µM with NCI-H23 lung. The TGI in the assay on OVCAR-8 ovarian stood at 4.46 µM; with OVCAR-5 ovarian it was 31.3 µM; in the assay with SK-MEL-5 melanoma, 27.2 µM.
For the compound `CCN(C(=O)N[C@@H](CC(C)C)C(=O)NCC(=O)OC)c1ccccc1`, the TGI in the assay with SR leukemia, in the assay with LOX IMVI melanoma, with ACHN renal, with MCF7 breast, with SW-620 colon and with A549 NSCLC was more than 100 µM in each case. The TGI in the assay with MDA-N, in the assay on COLO 205 colon, in the assay on TK-10 renal, with HCT-116 colon, with HOP-62 NSCLC and in the assay on NCI-H23 lung was more than 100 µM each time. For the same compound, the TGI with OVCAR-8 ovarian, with OVCAR-5 ovarian, with HCC-2998 colon and in the assay on SK-MEL-5 melanoma was more than 100 µM each time.
Take `CC1C(OS(=O)(=O)c2ccc3[nH]c(=S)sc3c2)CC2C3(C)CCC2(C(C)C(=O)O)C(O)C13` (stereo not given): the TGI in the assay with SR leukemia is 64.8 µM; in the assay with ACHN renal it was 31.8 µM; with HL-60(TB) leukemia, 58 µM; in the assay on MCF7 breast, more than 100 µM; with A549 NSCLC, more than 100 µM; in the assay on MDA-N, 69.8 µM. Also, the TGI in the assay on COLO 205 colon was 38 µM; in the assay on TK-10 renal it was more than 100 µM; in the assay on HCT-116 colon, 27.3 µM; in the assay on HOP-62 NSCLC it was 66.5 µM; in the assay on NCI-H23 lung, 38.3 µM; with OVCAR-8 ovarian it was 54.6 µM. Further, the TGI in the assay with OVCAR-5 ovarian is 93.3 µM; with HCC-2998 colon, more than 100 µM; in the assay with SK-MEL-5 melanoma, 34.5 µM.
For the compound `CN(Cc1cccc2ccsc12)/N=C\c1ccc(Cl)cc1`, the TGI in the assay with SR leukemia, in the assay with LOX IMVI melanoma, with ACHN renal, with MCF7 breast, in the assay with SW-620 colon and in the assay with A549 NSCLC was more than 100 µM in each case. Besides, the TGI in the assay on MDA-N, in the assay with COLO 205 colon, in the assay on TK-10 renal, in the assay with HCT-116 colon, with HOP-62 NSCLC and in the assay on NCI-H23 lung was more than 100 µM each time. Besides, the TGI with OVCAR-8 ovarian was more than 100 µM; in the assay on OVCAR-5 ovarian, more than 100 µM; in the assay with HCC-2998 colon, more than 100 µM; in the assay on SK-MEL-5 melanoma, 41.6 µM.
